Laboratory results: patent US20070208088A1, “PQS: A NEW HYDROTROPE FOR SOLUBILIZING LIPOPHILIC COMPOUNDS IN WATER” (ZYMES, LLC, priority 2006, published 2007)

Test: Micelle formation and micelle particle size in aqueous solution
Type: physicochemical
Details: for particle size of the micelles: micelles formed in aqueous solution
From the text: In one example, the compounds of the invention form micelles when added to an aqueous solution. The particle sizes of these micelles can be determined using art recognized methods, such as light scattering techniques. In one embodiment, the particle size is between about 300 nm and about 1 nm, preferably between about 200 nm and about 1 nm, more preferably between about 100 nm and about 1 nm. Smaller particle sizes are generally preferred.
Smaller micelle size is generally preferred.

polyoxyethanyl-ubiquinol-sebacate [PQS-600]
micelle formation in aqueous solution: forms micelles | particle size of the micelles: about 120 nm

polyoxyethanyl-ubiquinol-sebacate [PQS-1000]
micelle formation in aqueous solution: forms micelles | particle size of the micelles: about 80 nm
